Tests used:
[1] = test system: brachyury expression in ES03 hESCs; assay: Brachyury expression (mesendoderm induction) by western blot and immunostaining; assay type: cell-based, human
Description: Cells were fixed with 4% paraformaldehyde for 15 min at room temperature and then stained with primary and secondary antibodies (Table 3) in PBS plus 0.4% Triton X-100 and 5% non-fat dry milk (Bio-Rad). Nuclei were stained with Gold Anti-fade Reagent with DAPI (Invitrogen). An epifluorescence microscope (Leica DM IRB) with a QImaging® Retiga 4000R camera was used for imaging analysis. Cells were lysed in M-PER Mammalian Protein Extraction Reagent (Pierce) in the presence of Halt Protease and Phosphatase Inhibitor Cocktail (Pierce). Proteins were separated by 10% Tris-Glycine SDS/PAGE (Invitrogen) under denaturing conditions and transferred to a nitrocellulose membrane. After blocking with 5% dried milk in TBST, the membrane was incubated with primary antibody overnight at 4° C. The membrane was then washed, incubated with an anti-mouse/rabbit peroxidase-conjugated secondary antibody (Table 3) at room temperature for 1 hour, and developed by SuperSignal chemiluminescence (Pierce).

hPSCs = assay: Cell death of hPSCs on Gsk3 inhibitor treatment in albumin-free medium; assay type: cell-based, human
Description: hPSCs maintained on a Synthemax-coated surface in E8 or mTeSR1 medium were dissociated into single cells with Accutase® (Life Technologies) at 37° C. for 5 min and then seeded onto a Synthemax-coated cell culture dish at 100,000-200,000 cell/cm^2 in E8 supplemented with 5 μM ROCK inhibitor Y-27632 (Selleckchem)(day −2) for 24 hours. Cells were then cultured in E8, changed daily. […] At day 0 the cell density should be between 250,000 and 400,000 cells/cm^2. At day 3, half the medium was changed to fresh RPMI medium containing 2.5 μM IWP2 (Tocris). At day 5, the entire medium was changed with RPMI medium. Cells were maintained in the cardiomyocyte maintenance medium (CMM: RPMI supplemented with 10 μg/ml insulin (sigma) and 200 μg/ml L-Ascorbic acid 2-phosphate sesquimagnesium salt hydrate (sigma)) starting from day 7, with the medium changed every 2 days.

In the case of `Cc1c[nH]c(-c2cnc(NCCNc3ccc(C#N)cn3)nc2-c2ccc(Cl)cc2Cl)n1` [CH], the brachyury expression ([1]; 6 μM CH, albumin-free RPMI, after 24 hr) is reported as “induced robust brachyury expression”, the brachyury expression ([1]; 30 μM CH, medium containing 1% HRA) is reported as “induced brachyury expression” and the brachyury expression ([1]; CH concentrations up to 6 μM, presence of 1% human recombinant albumin (HRA)) is reported as “unable to induce brachyury expression”. For the same compound, the cell death (hPSCs; 12 μM at day 0, by 24 hr, absence of BSA) was “prolific cell death” and the cell death (hPSCs; same concentration of CH as Burridge et al., 2 days, albumin-free medium) was “substantial cell death”.
